Molecular target: Protein arginine deiminase 4 (PAD4) (Homo sapiens, UniProt Q9UM07)
Experiment: PAD4 ammonia release assay
Type: biochemical
Settings: PAD4 ammonia release assay, BAEE substrate, 60 min at RT; read-out: Average IC50 Abs
Summary of the method: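 Ammonia release from BAEE substrate (2× mix 600 μM) was measured after 60 min at RT, following 15 min enzyme–compound preincubation (PAD4 2× 20 nM; pH 8.0 HEPES, 2 mM CaCl2, TCEP; 1.25% DMSO). Detection used OPA/DTT/EDTA for 120 min. % inhibition was taken versus reference-compound and DMSO controls; IC50 by four-parameter logistic fit.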

Protein arginine deiminase 4 (PAD4), sequence (Q9UM07 whole entry): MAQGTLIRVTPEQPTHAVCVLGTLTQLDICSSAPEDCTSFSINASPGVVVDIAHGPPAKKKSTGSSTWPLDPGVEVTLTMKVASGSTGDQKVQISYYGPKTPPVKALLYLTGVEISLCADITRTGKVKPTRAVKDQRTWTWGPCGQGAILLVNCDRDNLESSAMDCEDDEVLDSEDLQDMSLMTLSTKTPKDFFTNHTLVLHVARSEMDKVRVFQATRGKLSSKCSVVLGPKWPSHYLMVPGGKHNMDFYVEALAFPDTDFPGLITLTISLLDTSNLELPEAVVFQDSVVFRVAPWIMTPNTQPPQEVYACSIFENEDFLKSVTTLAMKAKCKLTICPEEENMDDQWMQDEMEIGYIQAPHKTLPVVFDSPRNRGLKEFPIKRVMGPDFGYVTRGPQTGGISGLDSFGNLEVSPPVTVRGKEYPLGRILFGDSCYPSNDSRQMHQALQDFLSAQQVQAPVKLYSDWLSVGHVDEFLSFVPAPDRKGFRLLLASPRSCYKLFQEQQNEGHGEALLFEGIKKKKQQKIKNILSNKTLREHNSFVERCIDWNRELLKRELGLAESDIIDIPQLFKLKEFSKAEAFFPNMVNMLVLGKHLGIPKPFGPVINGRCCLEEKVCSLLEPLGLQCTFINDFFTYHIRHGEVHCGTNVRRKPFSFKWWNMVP

Row | Compound | IC50 [nM]
1 | COc1cc(C(=O)N2C[C@H](N)C[C@@H](C(F)(F)F)C2)cc2nc(-c3cc4cccc5c4n3CCN5CCCO)n(C)c12 [Example 17, ((3R,5R)-3-amino-5-(trifluoromethyl)piperidin-1-yl)(2-(1-(3-hydroxypropyl)-2,3-dihydro-1H-pyrrolo[1,2,3-de]quinoxalin-5-yl)-7-methoxy-1-methyl-1H-benzo[d]imidazol-5-yl)methanone] | > 5000
2 | CCC1CN(CCCO)c2cccc3cc(-c4nc5cc(C(=O)N6C[C@H]7CC[C@@H]6[C@@H]7N)cc(F)c5n4CC4CC4)n1c23 (stereo partly drawn) [Example 77, ((1R,4R,7R)-7-amino-2-azabicyclo[2.2.1]heptan-2-yl)(1-(cyclopropylmethyl)-2-(3-ethyl-1-(3-hydroxypropyl)-2,3-dihydro-1H-pyrrolo[1,2,3-de]quinoxalin-5-yl)-7-fluoro-1H-benzo[d]imidazol-5-yl)methanone] | 100 to 500
3 | CCC1C(=O)Nc2c(C#N)ccc3cc(-c4nc5cc(C(=O)N6C[C@H]7CC[C@@H]6[C@@H]7N)cc(F)c5n4C)n1c23 (stereo partly drawn) [Example 127, 5-(5-((1R,4R,7R)-7-amino-2-azabicyclo[2.2.1]heptane-2-carbonyl)-7-fluoro-1-methyl-1H-benzo[d]imidazol-2-yl)-3-ethyl-2-oxo-2,3-dihydro-1H-pyrrolo[1,2,3-de]quinoxaline-9-carbonitrile] | 500 to 5000
4 | Cn1c(-c2cc3ccc(C#N)c4c3n2[C@H](C2CC2)CN4)nc2cc(C(=O)N3C[C@H]4CC[C@@H]3[C@@H]4N)cc(F)c21 (single isomer, unassigned) [Example 116] | 500 to 5000
5 | CCC1CNc2nccc3cc(-c4nc5cc(C(=O)N6C[C@H]7CC[C@@H]6[C@@H]7N)cc(F)c5n4C)n1c23 (stereo partly drawn) [Example 135, ((1R,4R,7R)-7-amino-2-azabicyclo[2.2.1]heptan-2-yl)(2-(3-ethyl-4,5-dihydro-3H-2a, 5,6-triazaacenaphthylen-2-yl)-7-fluoro-1-methyl-1H-benzo[d]imidazol-5-yl)methanone] | > 5000
6 | COCCCN1CCn2c(-c3nc4cc(C(=O)N5CCC[C@@H](N)C5)cc(OC)c4n3C)cc3cccc1c32 [Example 21, (R)-(3-aminopiperidin-1-yl)(7-methoxy-2-(1-(3-methoxypropyl)-2,3-dihydro-1H-pyrrolo[1,2,3-de]quinoxalin-5-yl)-1-methyl-1H-benzo[d]imidazol-5-yl)methanone] | 500 to 5000
7 | COc1cc(C(=O)N2C[C@H](N)C[C@@H](F)C2)cc2nc(-c3cc4cccc5c4n3CCN5CCCO)n(CC(F)F)c12 [Example 51, ((3R,5R)-3-amino-5-fluoropiperidin-1-yl)(1-(2,2-difluoroethyl)-2-(1-(3-hydroxypropyl)-2,3-dihydro-1H-pyrrolo[1,2,3-de]quinoxalin-5-yl)-7-methoxy-1H-benzo[d]imidazol-5-yl)methanone] | 100 to 500
8 | Cc1nnc2c3c(ccn12)cc(-c1nc2cc(C(=O)N4C[C@H]5CC[C@@H]4[C@@H]5N)cc(F)c2n1C)n3CC1CC1 [Example 159, [(1R,4R,7R)-7-amino-2-azabicyclo[2.2.1]heptan-2-yl]-[2-[12-(cyclopropylmethyl)-5-methyl-3,4,6,12-tetrazatricyclo[7.3.0.02,6]dodeca-1(9), 2,4,7,10-pentaen-11-yl]-7-fluoro-1-methyl-benzimidazol-5-yl]methanone] | 500 to 5000
9 | Cn1c(-c2cc3ccc4[nH]ccc4c3n2CC2CC2)nc2cc(C(=O)N3C[C@H]4CC[C@@H]3[C@@H]4N)cc(F)c21 [Example 144, ((1R,4R,7R)-7-amino-2-azabicyclo[2.2.1]heptan-2-yl)(2-(1-(cyclopropylmethyl)-1,6-dihydropyrrolo[2,3-e]indol-2-yl)-7-fluoro-1-methyl-1H-benzo[d]imidazol-5-yl)methanone] | 100 to 500
10 | CC(C)[C@@H]1CNc2cccc3cc(-c4nc5cc(C(=O)N6C[C@H]7CC[C@@H]6[C@@H]7N)cc(F)c5n4C)n1c23 [Example 105, ((1R,4R,7R)-7-amino-2-azabicyclo[2.2.1]heptan-2-yl)(7-fluoro-2-((R)-3-isopropyl-2,3-dihydro-1H-pyrrolo[1,2,3-de]quinoxalin-5-yl)-1-methyl-1H-benzo[d]imidazol-5-yl)methanone] | 500 to 5000

Reference: patent US20250136607A1 (REGOR PHARMACEUTICALS, INC., priority 2021, published 2025)
